Tests used:
[1] = refractive index (Na D-line) (dimensionless); xn = mol fraction of the nth substance listed; conditions: 101 kPa, Liquid, Dipping refractometry (monochromatic), x2 = 0
[2] = xn = mol fraction of the nth substance listed; conditions: 101 kPa, Liquid, x2 = 0; for mass density: Vibrating tube method
[3] = 293.15 K; 101.33 kPa; Liquid; Vibrating tube method

CCCCO [butan-1-ol] + C1CCOC1
Conditions | mass density, [2] [kg/m3] | refractive index, [1] | viscosity, [2] [mPa·s]
288.15 K | 813.37 | 1.4014 | 3.375
293.15 K | 809.57 | 1.3993 | 2.945
298.15 K | 805.76 | 1.3973 | 2.581
303.15 K | 801.92 | 1.3952 | 2.272
308.15 K | 798.05 | 1.3932 | 2.008
313.15 K | 794.15 | 1.3911 | 1.782
318.15 K | 790.23 | 1.389 | 1.587
323.15 K | 786.24 | 1.3869 | 1.419

CCCCO [butan-1-ol] + COC(=O)CCCCC(=O)OC
[2], stabinger viscometer
Conditions | viscosity [mPa·s]
288.15 K | 3.375
293.15 K | 2.945
298.15 K | 2.581
303.15 K | 2.272
308.15 K | 2.008
313.15 K | 1.782
318.15 K | 1.587
323.15 K | 1.419

COC(=O)CCCCC(=O)OC [dimethyl 1,6-hexanedioate]
Conditions | mass density [kg/m3]
[3] | 1061.93

Reference: the NIST ThermoML archive (doi:10.1021/je4003916)
